Laboratory results reported in patent US9475824B2, “Fused pyrimidines as inhibitors of p97 complex” (Cleave Biosciences, Inc., priority 2012, dated 2016).

Key:
K48-Ub, A549 cells = assay: A549 K48 cell intensity (immunofluorescence, high content imaging); assay type: cell-based; settings: Homo sapiens, 6 hr compound incubation
Procedure: Image-analysis is used to generate quantitative data from these assays that can be fit to a four-parameter sigmoid curve to derive IC50 values. Substrates of the ubiquitin-proteasome system, such as p53, are monitored after tumor cell lines are incubated with compounds for several hours. Accumulation of these proteins indicates an inhibition of proteasome-mediated degradation. Accumulation of lysine-48 chain linkage of poly-ubiquitin is also monitored by immunofluorescence as an indicator of ubiquitin-proteasome system inhibition. Both LC3 and SQSTM1 are mediators of autophagy. The localization and amounts of these proteins are monitored by immunofluorescence and report on the activity and inhibition of autophagy in response to p97 inhibition.
Day 1, Cell Plating to Establish Colonies of Cancer Cells • Cell Plating: • Seed cells ˜16 hrs prior to compound treatment • Plate 25 μL of A549 cells in every well of 384-well plate using multidrop. • Two (2) black plates for IF at 2500 cells/well • Let plate sit at room temp for 10-15 minutes prior to putting in incubator to allow cells to stick in middle of plate. • One (1) white plate for viability at 500 cells/well.

p97 = p97 (Homo sapiens, UniProt P55072); assay: P97 ATPase biochemical assay (ADP Glo); settings: 20 nM p97, 20 μM ATP, 37° C. 15 minutes
Sequence of p97 (P55072 whole entry): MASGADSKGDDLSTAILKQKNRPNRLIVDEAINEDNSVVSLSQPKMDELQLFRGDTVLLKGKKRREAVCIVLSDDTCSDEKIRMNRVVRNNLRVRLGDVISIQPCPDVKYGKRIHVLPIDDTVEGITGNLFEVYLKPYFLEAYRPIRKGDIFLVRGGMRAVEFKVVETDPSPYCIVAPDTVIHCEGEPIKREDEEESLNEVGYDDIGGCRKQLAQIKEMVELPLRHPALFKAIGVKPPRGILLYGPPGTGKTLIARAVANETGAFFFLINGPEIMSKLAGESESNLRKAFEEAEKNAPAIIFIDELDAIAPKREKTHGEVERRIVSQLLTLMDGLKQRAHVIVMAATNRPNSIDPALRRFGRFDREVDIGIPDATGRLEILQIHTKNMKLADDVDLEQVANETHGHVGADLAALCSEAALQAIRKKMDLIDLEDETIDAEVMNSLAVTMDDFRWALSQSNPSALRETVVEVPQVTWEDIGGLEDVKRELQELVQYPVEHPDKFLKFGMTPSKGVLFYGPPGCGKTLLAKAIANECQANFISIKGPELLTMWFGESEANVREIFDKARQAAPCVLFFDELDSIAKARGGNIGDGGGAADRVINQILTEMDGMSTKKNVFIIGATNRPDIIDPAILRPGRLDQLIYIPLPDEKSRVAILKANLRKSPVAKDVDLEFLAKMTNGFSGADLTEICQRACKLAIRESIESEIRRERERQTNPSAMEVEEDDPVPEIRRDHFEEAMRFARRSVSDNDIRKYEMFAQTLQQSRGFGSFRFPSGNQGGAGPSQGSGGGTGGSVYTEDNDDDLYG
Procedure: The ATPase assay is performed according the following protocol: Purified enzyme (20 nM p97), substrate (20 μM ATP) and a dose titration of compounds are mixed in buffer (50 mM TRIS pH 7.5, 20 mM MgCl2, 0.02% TX-100, 1 mM DTT, 0.2% (v/v) glycerol) and incubated at 37° C. for 15 minutes. The reaction is terminated and the level of product generated is measured using the ADP Glo Assay Kit (Promega, Madison Wis.). Plotting product generated versus compound concentration and using a four-parameter fit model generates an IC50 value for each compounds.
The p97 assay is an initial screening assay used to determine inhibitory activity of the fused pyrimidine compounds of the invention against the p97 complex. As discussed above, inhibition of activity of the p97 proteosome complex can enable apoptosis and cause elimination of neoplastic cells (cancer cells). The method follows that of Christianson in Nat.
Assay Buffer is a mixture of 50 mM TRIS pH 7.5, 20 mM MgCl2, 0.02% TX-100, 1 mM DTT and 0.2% (v/v) Glycerol. […] The identification kit is an ADP glo kit (Promega): stop buffer, detection reagent.
0.5 μL compound serial diluted in DMSO (Final Conc. 10%)
2 μL ATP (Final Conc.=20 uM, diluted in assay buffer)
2.5 μL p97 (Final Conc.=20 nM, diluted in assay buffer)
Incubate at 37 degC for 15 min.
Add 5 μL of stop buffer, incubate at RT for 40 min.
Add 10 μL of detection reagent, incubate at RT for 30 min.
Read luminescence on Envision plate reader.
Plot normalized luminescence data against log-transformed concentration values and fit to a sigmoidal curve to determine IC50 values (done in Collaborative Drug Discovery software).

SMILES | IC50 (K48-Ub, A549 cells) [µM] | IC50 (p97) [µM]
COc1nc2ccccc2n1-c1nc2c(c(NCc3ccccc3)n1)CCCC2 [compound 9, N-benzyl-2-(2-methoxy-1H-1,3-benzodiazol-1-yl)-5,6,7,8-tetrahydroquinazolin-4-amine] | < 10 | < 0.1
Cc1cc2ccccc2n1-c1nc2c(c(NCc3ccccc3)n1)CCCC2 [compound 21, N-benzyl-2-(2-methyl-1H-indol-1-yl)-5,6,7,8-tetrahydroquinazolin-4-amine] | < 10 | < 0.3
Cc1cc2c(C#N)cccc2n1-c1nc2c(c(NCc3ccccc3)n1)CNCC2 [compound 42, 1-[4-(benzylamino)-5H,6H,7H,8H-pyrido[4,3-d]pyrimidin-2-yl]-2-methyl-1H-indole-4-carbonitrile] | < 10 | < 0.1
Cc1cc2c(C(=O)NCCN(C)C)cccc2n1-c1nc2c(c(NCc3ccccc3)n1)COCC2 [compound 84] | < 10 | < 0.03
Cc1cc2c(C(N)=O)cccc2n1-c1nc2c(c(NCc3ccccc3)n1)CCCC2 [compound 90, 1-[4-(benzylamino)-5,6,7,8-tetrahydroquinazolin-2-yl]-2-methyl-1H-indole-4-carboxamide] | < 10 | < 0.03
COc1cc2c(C(N)=O)cccc2n1-c1nc2c(c(NCc3ccccc3)n1)CCCC2 [compound 91, 1-[4-(benzylamino)-5,6,7,8-tetrahydroquinazolin-2-yl]-2-methoxy-1H-indole-4-carboxamide] | < 10 | < 0.03
Cc1nc2c(C(N)=O)cccc2n1-c1nc2c(c(NCc3ccccc3)n1)COCC2 [compound 93, 1-[4-(benzylamino)-5H,7H,8H-pyrano[4,3-d]pyrimidin-2-yl]-2-methyl-1H-1,3-benzodiazole-4-carboxamide] | < 10 | < 0.1

Continued, values first:

IC50 (K48-Ub, A549 cells) [µM] | IC50 (p97) [µM] | SMILES
< 10 | < 0.03 | COc1nc2c(C(N)=O)cccc2n1-c1nc2c(c(NCc3ccccc3)n1)COCC2 [compound 94, 1-[4-(benzylamino)-5H,7H,8H-pyrano[4,3-d]pyrimidin-2-yl]-2-methoxy-1H-1,3-benzodiazole-4-carboxamide]
< 10 | < 0.1 | NC(=O)c1cccc2c1cc(CO)n2-c1nc2c(c(NCc3ccccc3)n1)COCC2 [compound 96, 1-[4-(benzylamino)-5H,7H,8H-pyrano[4,3-d]pyrimidin-2-yl]-2-(hydroxymethyl)-1H-indole-4-carboxamide]
< 10 | < 0.1 | CNC(=O)c1cccc2c1cc(C)n2-c1nc2c(c(NCc3ccccc3)n1)COCC2 [compound 97, 1-[4-(benzylamino)-5H,7H,8H-pyrano[4,3-d]pyrimidin-2-yl]-N,2-dimethyl-1H-indole-4-carboxamide]
< 10 | < 0.03 | NCc1cc2c(C(N)=O)cccc2n1-c1nc2c(c(NCc3ccccc3)n1)CCCC2 [compound 101, 2-(aminomethyl)-1-[4-(benzylamino)-5,6,7,8-tetrahydroquinazolin-2-yl]-1H-indole-4-carboxamide]
< 10 | < 1 | Cc1cc2c(C(=O)NCCN)cccc2n1-c1nc2c(c(NCc3ccccc3)n1)COCC2 [compound 105, N-(2-aminoethyl)-1-[4-(benzylamino)-5H,7H,8H-pyrano[4,3-d]pyrimidin-2-yl]-2-methyl-1H-indole-4-carboxamide]
< 10 | < 0.3 | COc1nc2c(C#N)cccc2n1-c1nc2c(c(NCc3ccccc3)n1)COCC2 [compound 106, 1-[4-(benzylamino)-5H,7H,8H-pyrano[4,3-d]pyrimidin-2-yl]-2-methoxy-1H-1,3-benzodiazole-4-carbonitrile]
< 10 |  | Cc1cc2c(CN)cccc2n1-c1nc2c(c(NCc3ccccc3)n1)COCC2 [compound 125, 2-[4-(aminomethyl)-2-methyl-1H-indol-1-yl]-N-benzyl-5H,7H,8H-pyrano[4,3-d]pyrimidin-4-amine]
 | < 0.03 | CCOc1cc2c(C(N)=O)cccc2n1-c1nc2c(c(NCc3ccccc3)n1)CCCC2 [compound 135, 1-[4-(benzylamino)-5,6,7,8-tetrahydroquinazolin-2-yl]-2-ethoxy-1H-indole-4-carboxamide]
